Measurements as given in ChEMBL document CHEMBL1148543, “Discovery of A-770041, a src-family selective orally active lck inhibitor that prevents organ allograft rejection” (Bioorg Med Chem Lett, 2006).
Values belong to the compound of their own block, whether it stands above or below them.

How the values were obtained:
[1] = biological target: T1, Tyrosine-protein kinase Lck (Homo sapiens, UniProt P06239); experiment: Inhibitory activity against lck
[2] = biological target: T1, Tyrosine-protein kinase Lck; experiment: Inhibitory activity against anti-CD3 mAb-induced IL2 production in human whole blood; assay type: functional, tissue-based
[3] = biological target: Tyrosine-protein kinase Fyn (Homo sapiens, UniProt P06241); experiment: Inhibitory activity against fyn
[4] = biological target: Tyrosine-protein kinase SYK (Homo sapiens, UniProt P43405); experiment: Inhibitory activity against Syk
[5] = biological target: Proto-oncogene tyrosine-protein kinase LCK (Mus musculus, UniProt P06240); experiment: Inhibition of TCR stimulated IL2 production in mice administered orally; assay type: functional
[6] = Volume of distribution in rat; assay type: ADME, organism-based; conditions: in vivo, read-out: Vdss
[7] = biological target: Tyrosine-protein kinase Fgr (Homo sapiens, UniProt P09769); experiment: Inhibitory activity against fgr
[8] = Tmax in mouse; assay type: ADME, organism-based; conditions: in vivo
Rattus norvegicus [9] = species: Rattus norvegicus; experiment: Plasma concentration in rat at […]; assay type: ADME, organism-based; conditions: in vivo
Rattus norvegicus [10] = experiment: Plasma concentration in rat at 5 mg/kg/day; assay type: ADME, organism-based; conditions: in vivo
Angiopoietin-1 receptor = Angiopoietin-1 receptor (Homo sapiens, UniProt Q02763); experiment: Inhibitory activity against tie2
[11] = Half life in rat; assay type: ADME, organism-based; conditions: in vivo
[12] = Plasma clearance in mouse; assay type: ADME, organism-based
[13] = biological target: Tyrosine-protein kinase Lyn (Homo sapiens, UniProt P07948); experiment: Inhibitory activity against lyn
[14] = Oral bioavailability in mouse; assay type: ADME, organism-based; conditions: in vivo
[15] = Half life in mouse; assay type: ADME, organism-based; conditions: in vivo
Rattus norvegicus [16] = experiment: Plasma concentration in rat at 10 mg/kg/day; assay type: ADME, organism-based; conditions: in vivo
[17] = Oral bioavailability in rat; assay type: ADME, organism-based; conditions: in vivo
[18] = Cmax in mouse; assay type: ADME, organism-based; conditions: in vivo
[19] = Plasma clearance in rat; assay type: ADME, organism-based
[20] = Volume of distribution in mouse; assay type: ADME, organism-based; conditions: in vivo, read-out: Vdss
[21] = biological target: Mitogen-activated protein kinase kinase kinase 8 (Homo sapiens, UniProt P41279); experiment: Inhibitory activity against COT
[22] = biological target: T2, Tyrosine-protein kinase ZAP-70 (Homo sapiens, UniProt P43403); experiment: Inhibitory activity against ZAP70
T2 sequence (P43403 whole entry): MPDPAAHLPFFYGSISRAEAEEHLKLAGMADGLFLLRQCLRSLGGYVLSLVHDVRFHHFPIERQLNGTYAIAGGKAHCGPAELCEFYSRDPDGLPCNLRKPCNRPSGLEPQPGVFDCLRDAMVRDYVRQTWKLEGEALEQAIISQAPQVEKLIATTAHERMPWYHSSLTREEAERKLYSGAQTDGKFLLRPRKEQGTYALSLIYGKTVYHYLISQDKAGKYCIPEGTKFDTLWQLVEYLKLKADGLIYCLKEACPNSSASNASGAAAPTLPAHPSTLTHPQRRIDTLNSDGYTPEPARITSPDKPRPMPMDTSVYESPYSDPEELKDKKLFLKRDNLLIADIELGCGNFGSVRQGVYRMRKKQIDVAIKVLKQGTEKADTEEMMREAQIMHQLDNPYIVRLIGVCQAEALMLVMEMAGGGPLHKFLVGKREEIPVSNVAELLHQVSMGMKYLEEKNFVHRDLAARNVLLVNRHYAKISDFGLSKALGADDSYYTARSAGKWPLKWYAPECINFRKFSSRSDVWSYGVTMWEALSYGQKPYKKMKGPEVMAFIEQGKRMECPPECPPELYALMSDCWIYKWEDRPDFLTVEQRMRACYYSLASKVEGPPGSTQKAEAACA

[23] = Tmax in rat; assay type: ADME, organism-based; conditions: in vivo
[24] = Cmax in rat; assay type: ADME, organism-based; conditions: in vivo
[25] = biological target: Proto-oncogene tyrosine-protein kinase LCK (Mus musculus) (UniProt P06240)
[26] = biological target: Proto-oncogene tyrosine-protein kinase Src (Homo sapiens, UniProt P12931); experiment: Inhibitory activity against src
Proto-oncogene tyrosine-protein kinase Src, sequence (P12931 2-536 limits assumed): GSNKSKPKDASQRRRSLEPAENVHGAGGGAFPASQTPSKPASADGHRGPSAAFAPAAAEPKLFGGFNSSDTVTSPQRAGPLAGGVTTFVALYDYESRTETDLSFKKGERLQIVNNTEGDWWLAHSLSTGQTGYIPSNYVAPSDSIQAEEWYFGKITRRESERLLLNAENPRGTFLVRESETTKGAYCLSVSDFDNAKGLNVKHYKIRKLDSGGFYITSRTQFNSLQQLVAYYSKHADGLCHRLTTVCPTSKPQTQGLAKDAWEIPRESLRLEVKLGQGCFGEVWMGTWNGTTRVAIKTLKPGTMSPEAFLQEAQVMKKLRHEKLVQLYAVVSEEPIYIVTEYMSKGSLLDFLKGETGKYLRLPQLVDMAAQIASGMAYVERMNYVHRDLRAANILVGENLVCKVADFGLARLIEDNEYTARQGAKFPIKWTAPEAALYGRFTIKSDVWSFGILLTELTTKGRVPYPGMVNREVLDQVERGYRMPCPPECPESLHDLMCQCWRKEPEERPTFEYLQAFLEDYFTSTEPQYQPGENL

T1 sequence (P06239 whole entry): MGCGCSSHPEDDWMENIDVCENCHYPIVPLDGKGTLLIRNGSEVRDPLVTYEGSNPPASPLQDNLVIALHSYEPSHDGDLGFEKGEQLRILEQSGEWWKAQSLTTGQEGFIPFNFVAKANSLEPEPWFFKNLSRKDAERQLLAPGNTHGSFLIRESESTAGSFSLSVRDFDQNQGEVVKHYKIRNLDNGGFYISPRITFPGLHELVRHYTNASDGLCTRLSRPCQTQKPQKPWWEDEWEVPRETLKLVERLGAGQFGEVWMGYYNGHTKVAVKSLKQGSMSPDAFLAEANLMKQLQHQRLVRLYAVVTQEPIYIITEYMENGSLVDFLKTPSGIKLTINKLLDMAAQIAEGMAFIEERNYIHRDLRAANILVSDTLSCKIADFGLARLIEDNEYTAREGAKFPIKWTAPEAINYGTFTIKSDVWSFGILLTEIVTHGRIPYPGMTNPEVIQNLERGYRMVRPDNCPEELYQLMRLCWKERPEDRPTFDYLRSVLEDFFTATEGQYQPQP
Tyrosine-protein kinase Fyn, sequence (P06241 whole entry): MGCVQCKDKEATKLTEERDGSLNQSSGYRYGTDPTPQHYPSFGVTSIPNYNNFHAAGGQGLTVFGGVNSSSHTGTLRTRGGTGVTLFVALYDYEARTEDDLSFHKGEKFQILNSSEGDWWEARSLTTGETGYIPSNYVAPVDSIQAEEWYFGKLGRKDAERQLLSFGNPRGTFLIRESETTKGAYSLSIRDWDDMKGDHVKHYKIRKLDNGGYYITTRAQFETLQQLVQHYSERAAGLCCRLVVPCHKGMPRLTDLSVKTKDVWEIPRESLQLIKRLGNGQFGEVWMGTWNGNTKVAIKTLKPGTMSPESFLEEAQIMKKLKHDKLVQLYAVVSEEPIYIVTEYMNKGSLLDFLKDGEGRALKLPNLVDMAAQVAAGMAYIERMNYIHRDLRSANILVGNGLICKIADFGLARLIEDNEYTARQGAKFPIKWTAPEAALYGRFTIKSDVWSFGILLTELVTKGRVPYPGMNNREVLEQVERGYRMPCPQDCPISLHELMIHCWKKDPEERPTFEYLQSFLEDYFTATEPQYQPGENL
Proto-oncogene tyrosine-protein kinase LCK (Mus musculus), sequence (P06240 2-509 limits assumed): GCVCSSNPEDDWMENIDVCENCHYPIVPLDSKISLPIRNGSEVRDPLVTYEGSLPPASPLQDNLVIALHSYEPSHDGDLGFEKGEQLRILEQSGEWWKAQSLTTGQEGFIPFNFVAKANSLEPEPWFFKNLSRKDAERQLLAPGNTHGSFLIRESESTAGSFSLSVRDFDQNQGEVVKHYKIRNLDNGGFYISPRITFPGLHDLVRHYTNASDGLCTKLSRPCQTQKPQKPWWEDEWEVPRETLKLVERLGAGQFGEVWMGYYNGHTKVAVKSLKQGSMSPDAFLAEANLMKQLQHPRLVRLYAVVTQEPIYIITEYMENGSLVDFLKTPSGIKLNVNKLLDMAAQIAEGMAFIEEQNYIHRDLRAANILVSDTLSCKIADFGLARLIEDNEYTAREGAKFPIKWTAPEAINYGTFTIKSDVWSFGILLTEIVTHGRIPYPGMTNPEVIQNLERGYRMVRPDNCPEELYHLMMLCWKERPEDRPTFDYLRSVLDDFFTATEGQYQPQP
Tyrosine-protein kinase Fgr, sequence (P09769 whole entry): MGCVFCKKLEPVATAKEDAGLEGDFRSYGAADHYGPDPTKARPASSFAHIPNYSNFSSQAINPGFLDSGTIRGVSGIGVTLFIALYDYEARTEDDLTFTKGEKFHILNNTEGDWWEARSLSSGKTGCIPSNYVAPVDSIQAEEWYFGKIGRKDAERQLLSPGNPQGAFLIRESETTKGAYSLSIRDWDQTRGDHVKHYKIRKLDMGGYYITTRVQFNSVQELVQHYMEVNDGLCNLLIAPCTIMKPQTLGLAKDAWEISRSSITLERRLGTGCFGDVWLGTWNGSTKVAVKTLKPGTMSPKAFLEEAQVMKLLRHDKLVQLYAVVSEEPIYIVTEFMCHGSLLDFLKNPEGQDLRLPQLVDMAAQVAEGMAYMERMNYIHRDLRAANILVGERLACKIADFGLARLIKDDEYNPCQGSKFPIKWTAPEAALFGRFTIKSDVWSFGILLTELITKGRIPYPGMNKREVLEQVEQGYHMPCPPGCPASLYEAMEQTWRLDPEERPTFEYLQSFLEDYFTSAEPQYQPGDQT
Tyrosine-protein kinase Lyn, sequence (P07948 whole entry): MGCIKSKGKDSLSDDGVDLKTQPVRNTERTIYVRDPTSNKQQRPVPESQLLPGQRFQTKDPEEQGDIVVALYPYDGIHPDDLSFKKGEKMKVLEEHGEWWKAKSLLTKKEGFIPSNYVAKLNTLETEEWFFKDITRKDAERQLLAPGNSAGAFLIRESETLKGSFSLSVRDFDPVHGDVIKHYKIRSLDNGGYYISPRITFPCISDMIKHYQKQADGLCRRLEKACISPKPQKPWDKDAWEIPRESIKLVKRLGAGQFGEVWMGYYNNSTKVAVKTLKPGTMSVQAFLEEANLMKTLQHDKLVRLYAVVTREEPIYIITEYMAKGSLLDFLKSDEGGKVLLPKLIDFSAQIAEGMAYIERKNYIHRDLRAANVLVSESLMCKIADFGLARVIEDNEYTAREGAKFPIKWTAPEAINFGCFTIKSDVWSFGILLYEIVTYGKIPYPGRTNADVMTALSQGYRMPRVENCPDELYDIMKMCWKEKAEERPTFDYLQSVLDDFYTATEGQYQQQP
Angiopoietin-1 receptor, sequence (Q02763 whole entry): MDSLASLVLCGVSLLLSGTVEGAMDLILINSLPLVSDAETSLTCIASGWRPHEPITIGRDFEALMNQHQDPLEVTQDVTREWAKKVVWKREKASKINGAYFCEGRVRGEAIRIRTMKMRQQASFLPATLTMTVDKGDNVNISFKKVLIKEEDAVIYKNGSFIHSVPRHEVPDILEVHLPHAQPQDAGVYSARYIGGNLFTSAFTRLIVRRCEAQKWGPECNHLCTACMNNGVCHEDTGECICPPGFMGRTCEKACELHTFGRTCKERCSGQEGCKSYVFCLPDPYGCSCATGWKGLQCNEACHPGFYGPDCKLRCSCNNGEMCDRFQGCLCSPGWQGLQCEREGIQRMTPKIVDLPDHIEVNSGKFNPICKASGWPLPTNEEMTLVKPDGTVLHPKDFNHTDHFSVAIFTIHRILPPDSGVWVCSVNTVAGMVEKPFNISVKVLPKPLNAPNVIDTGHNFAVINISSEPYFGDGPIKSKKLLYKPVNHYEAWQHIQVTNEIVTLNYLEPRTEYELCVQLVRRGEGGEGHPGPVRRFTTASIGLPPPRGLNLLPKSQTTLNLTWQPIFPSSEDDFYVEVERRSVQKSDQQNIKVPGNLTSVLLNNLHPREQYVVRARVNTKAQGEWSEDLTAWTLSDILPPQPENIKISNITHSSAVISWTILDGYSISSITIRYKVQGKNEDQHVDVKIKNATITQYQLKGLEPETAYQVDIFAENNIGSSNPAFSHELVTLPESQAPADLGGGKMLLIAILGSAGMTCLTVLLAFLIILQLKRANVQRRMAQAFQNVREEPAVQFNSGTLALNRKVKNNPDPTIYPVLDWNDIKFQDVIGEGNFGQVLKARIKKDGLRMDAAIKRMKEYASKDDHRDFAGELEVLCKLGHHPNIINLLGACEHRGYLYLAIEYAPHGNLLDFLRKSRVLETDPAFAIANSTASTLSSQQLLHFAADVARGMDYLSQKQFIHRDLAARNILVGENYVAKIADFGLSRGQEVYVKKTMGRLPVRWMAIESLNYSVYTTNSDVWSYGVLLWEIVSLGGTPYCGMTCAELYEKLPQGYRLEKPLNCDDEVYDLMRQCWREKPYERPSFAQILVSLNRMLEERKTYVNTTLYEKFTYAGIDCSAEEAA
Proto-oncogene tyrosine-protein kinase LCK, sequence (P06240 whole entry): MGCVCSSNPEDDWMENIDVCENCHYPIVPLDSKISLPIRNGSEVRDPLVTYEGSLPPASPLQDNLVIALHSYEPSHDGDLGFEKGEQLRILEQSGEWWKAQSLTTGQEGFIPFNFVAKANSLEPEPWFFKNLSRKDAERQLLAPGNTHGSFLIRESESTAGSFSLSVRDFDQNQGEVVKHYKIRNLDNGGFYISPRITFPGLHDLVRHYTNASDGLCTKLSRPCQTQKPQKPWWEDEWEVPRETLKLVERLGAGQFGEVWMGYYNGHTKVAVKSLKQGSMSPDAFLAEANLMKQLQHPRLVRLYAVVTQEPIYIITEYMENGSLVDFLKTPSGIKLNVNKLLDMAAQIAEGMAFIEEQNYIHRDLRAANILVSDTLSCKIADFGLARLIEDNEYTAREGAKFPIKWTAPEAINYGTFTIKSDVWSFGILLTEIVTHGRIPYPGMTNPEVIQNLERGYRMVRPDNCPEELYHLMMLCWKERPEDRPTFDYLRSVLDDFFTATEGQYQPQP

Structure (SMILES): COc1cc(-c2nn(C3CCN(C4CCOCC4)CC3)c3ncnc(N)c23)ccc1NC(=O)c1ccc(OC(F)(F)F)cc1
- IC50 [1]: 2350 nM
- IC50 [3]: > 50000 nM

Structure (SMILES): COc1cc(-c2nn([C@H]3CC[C@H](N4CCN(C(C)=O)CC4)CC3)c3ncnc(N)c23)ccc1NC(=O)c1cc2ccccc2n1C
- IC50 [4]: > 25000 nM
- IC50 [1]: 147 nM
- EC50 [5]: 78 nM
- Vd [6]: 1.2 L/kg
- IC50 [7]: 14100 nM
- Tmax [8]: 1 h
- IC50 [2]: 80 nM
- concentration (Rattus norvegicus [9]): 350 nM
- concentration (Rattus norvegicus [10]): 1060 nM
- IC50 (Angiopoietin-1 receptor): > 50000 nM
- half-life [11]: 4.1 h
- clearance [12]: 25 mL/min/kg
- IC50 [13]: 1180 nM
- bioavailability [14]: 27%
- half-life [15]: 4.7 h
- concentration (Rattus norvegicus [16]): 2900 nM
- bioavailability [17]: 52%
- Cmax [18]: 387 ng/mL
- clearance [19]: 3.33 mL/min/kg
- Vd [20]: 10.3 L/kg
- IC50 [21]: > 25000 nM
- IC50 [22]: > 25000 nM
- Tmax [23]: 4.7 h
- Cmax [24]: 2080 ng/mL

Structure (SMILES): COc1cc(-c2nn(C3CCN(C)CC3)c3ncnc(N)c23)ccc1NC(=O)c1ccc(C(F)(F)F)cc1F
- IC50 [1]: 106 nM
- IC50 [2]: 30 nM
- IC50 [3]: > 50000 nM

Structure (SMILES): COc1cc(-c2nn(C3CCN(C4CCOCC4)CC3)c3ncnc(N)c23)ccc1NC(=O)c1cc2ccccc2n1C
- IC50 [1]: 107 nM
- ED90 [25]: 15.5 mg/kg
- IC50 [2]: 20 nM
- bioavailability [14]: 93%
- IC50 [3]: > 50000 nM
- half-life [15]: 3.1 h

Structure (SMILES): COc1cc(-c2nn(C3CCN(C4CCOCC4)CC3)c3ncnc(N)c23)ccc1NC(=O)c1ccc(C)cc1
- IC50 [1]: 8960 nM
- IC50 [3]: > 50000 nM

Structure (SMILES): COc1cc(-c2nn(C3CCNCC3)c3ncnc(N)c23)ccc1NC(=O)c1ccc(C(F)(F)F)cc1F
- IC50 [1]: 80 nM
- IC50 [2]: 50 nM
- IC50 [3]: > 50000 nM

Structure (SMILES): COc1cc(-c2nn(C3CCN(C4CCOCC4)CC3)c3ncnc(N)c23)ccc1NC(=O)c1ccc(N(C)C)cc1
- IC50 [1]: 106 nM
- IC50 [2]: 35 nM
- IC50 [3]: > 50000 nM

Structure (SMILES): COc1cc(-c2nn(C3CCN(C4CCN(C)CC4)CC3)c3ncnc(N)c23)ccc1NC(=O)c1ccc(C(F)(F)F)cc1F
- IC50 [1]: 23 nM
- IC50 [2]: 20 nM
- IC50 [3]: 1070 nM

Structure (SMILES): COc1cc(-c2nn(C3CCN(C4CCOCC4)CC3)c3ncnc(N)c23)ccc1NC(=O)c1nc2ccccc2n1C
- IC50 [1]: 318 nM
- IC50 [2]: 54 nM
- IC50 [3]: > 50000 nM

Structure (SMILES): COc1cc(-c2nn(C3CCN(C4CCOCC4)CC3)c3ncnc(N)c23)ccc1NC(=O)c1cc2cc(C#N)ccc2n1C
- IC50 [1]: 3480 nM
- IC50 [3]: 32500 nM

Continued, values first:

- IC50 [1]: 102 nM
- IC50 [2]: 40 nM
- IC50 [3]: > 50000 nM
Structure (SMILES): COc1cc(-c2nn(C3CCN(C4CCOCC4)CC3)c3ncnc(N)c23)ccc1NC(=O)c1ccc(C(F)(F)F)cc1F

- IC50 [1]: 23200 nM
- IC50 [3]: > 50000 nM
Structure (SMILES): COc1cc(-c2nn(C3CCN(C4CCOCC4)CC3)c3ncnc(N)c23)ccc1NC(=O)c1cccc(O)c1

- IC50 [1]: 9180 nM
- IC50 [3]: > 50000 nM
Structure (SMILES): COc1cc(-c2nn(C3CCN(C4CCOCC4)CC3)c3ncnc(N)c23)ccc1NC(=O)c1cc(O)c2ccccc2n1

- IC50 [1]: 93 nM
- IC50 [2]: 30 nM
- IC50 [3]: > 50000 nM
Structure (SMILES): COc1cc(-c2nn(C3CCN(C4CCN(C(C)=O)CC4)CC3)c3ncnc(N)c23)ccc1NC(=O)c1ccc(C(F)(F)F)cc1F

- IC50 [1]: 341 nM
- IC50 [2]: 540 nM
- IC50 [3]: > 50000 nM
Structure (SMILES): COc1cc(-c2nn(C3CCN(Cc4ccccc4)CC3)c3ncnc(N)c23)ccc1NC(=O)c1ccc(C(F)(F)F)cc1F

- IC50 [1]: > 50000 nM
- IC50 [3]: > 50000 nM
Structure (SMILES): COc1cc(-c2nn(C3CCN(C4CCOCC4)CC3)c3ncnc(N)c23)ccc1NC(=O)c1cc2cc(C(N)=O)ccc2n1C

- IC50 [1]: 54 nM
- IC50 [2]: 13 nM
- IC50 [3]: 13600 nM
Structure (SMILES): COc1cc(-c2nn(C3CCN(C4CCOCC4)CC3)c3ncnc(N)c23)ccc1NC(=O)c1cc2cc(Cl)ccc2n1C

- IC50 [1]: 74 nM
- IC50 [26]: 17200 nM
- ED90 [25]: 19 mg/kg
- IC50 [3]: ≥ 50000 nM
Structure (SMILES): COc1cc(-c2nn(C3CCN(C4CCN(C(C)=O)CC4)CC3)c3ncnc(N)c23)ccc1NC(=O)c1cc2ccccc2n1C
